Source: paper PMC7845594, “Novel Immune Modulators Enhance Caenorhabditis elegans Resistance to Multiple Pathogens” (mSphere, 2021)

Assays:
[1] = tested on: P. aeruginosa strain PA14; test: MIC assay (bacterial growth, no worms); type: cell-based, Pseudomonas aeruginosa
How it was run: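 PA14 was grown in static culture with serial 2-fold compound dilutions, without worms, for 24 h at 37°C. MIC was scored visually by turbidity. At least three biological replicates were run.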

C. elegans transcriptome = test: Transcriptome profiling (Affymetrix microarrays), differentially expressed genes; type: in vivo, Caenorhabditis elegans; details: for Fold Change: downregulated genes
How it was run: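 Wild-type young-adult C. elegans (~6,000 per condition, triplicate) were exposed to each drug at 100 µM or to DMSO for 8 h without pathogen. TRIzol/RNeasy RNA was profiled on Affymetrix arrays. Fold changes were normalized to each gene's mean across conditions and clustered by Euclidean distance with average linkage.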

[2] = Downregulated genes, Affy_ID 171867_x_at
[3] = Downregulated genes, Affy_ID 176276_s_at

CCN(CC)/N=N/c1ccc(C(=O)O)cc1 [LK35]
MIC ([1]; Pseudomonas aeruginosa, P. aeruginosa PA14, LB media, static culture, no worms, read-out: MIC): > 908 µM
MIC / EC ([1]; ratio of MIC to EC, P. aeruginosa PA14): > 52.4
Fold Change (C. elegans transcriptome; Affy_ID 171811_s_at, listed under genes K01D12.7 (LK34, LK38), C57047 (LK35), K01D12.15 (LK38)): 0.292
Fold Change (C. elegans transcriptome; Affy_ID 171867_x_at, listed under genes C09B9.6, F36H12.7, K07F5.1, R05F9.13, R13H9.2, R13H9.4, T13F2.10, T13F2.11, Y59E9AR.1, Y59E9AR.7, ZK354.1): 0.2025
Fold Change (C. elegans transcriptome; Affy_ID 171880_x_at, listed under genes C24D10.7 and C24D10.8): 0.4703
Fold Change, gene Y59E9AR.1 (C. elegans transcriptome; [2]): 0.2025
Fold Change, gene Y59E9AR.7 (C. elegans transcriptome; [2]): 0.2025
Fold Change, gene ZK354.1 (C. elegans transcriptome; [2]): 0.2025
Fold Change, gene ZK354.10 (C. elegans transcriptome; [2]): 0.2025
Fold Change, gene ZK354.11 (C. elegans transcriptome; [2]): 0.2025
Fold Change, gene ZK354.4 (C. elegans transcriptome; [2]): 0.2025
Fold Change, gene ZK354.5 (C. elegans transcriptome; [2]): 0.2025
Fold Change, gene ZK131.11 (C. elegans transcriptome; Downregulated genes, Affy_ID 171916_s_at): 0.3792
Fold Change, gene Y59H11AM.1 (C. elegans transcriptome; Downregulated genes, Affy_ID 172113_x_at): 0.2252
Fold Change, gene Y71H2AL.C (C. elegans transcriptome; Downregulated genes, Affy_ID 172177_x_at): 0.4472
Fold Change, gene ZK525.1 (C. elegans transcriptome; Downregulated genes, Affy_ID 172214_x_at): 0.281
Fold Change, gene T23B7.1 (C. elegans transcriptome; Downregulated genes, Affy_ID 172486_x_at): 0.3276
Fold Change, gene Y105C5A.13 (C. elegans transcriptome; Downregulated genes, Affy_ID 172627_x_at): 0.07461
Fold Change, gene T28H11.6 (C. elegans transcriptome; Downregulated genes, Affy_ID 172704_x_at): 0.2084
Fold Change, gene ZK1248.4 (C. elegans transcriptome; Downregulated genes, Affy_ID 172734_x_at): 0.2437
Fold Change, gene ZK546.3 (C. elegans transcriptome; Downregulated genes, Affy_ID 172798_x_at): 0.1152
Fold Change, gene ZK131.7 (C. elegans transcriptome; Downregulated genes, Affy_ID 172871_x_at): 0.3252
Fold Change, gene ZK1248.6 (C. elegans transcriptome; Downregulated genes, Affy_ID 172887_x_at): 0.1434
Fold Change, gene ZK546.6 (C. elegans transcriptome; Downregulated genes, Affy_ID 172900_x_at): 0.1383
Fold Change, gene ZK1251.6 (C. elegans transcriptome; Downregulated genes, Affy_ID 172938_x_at): 0.1992
Fold Change, gene Y43F8B.2 (C. elegans transcriptome; Downregulated genes, Affy_ID 173326_s_at): 0.3741
Fold Change, gene T27E4.7 (C. elegans transcriptome; Downregulated genes, Affy_ID 173756_at): 0.207
Fold Change, gene Y54G2A.7 (C. elegans transcriptome; Downregulated genes, Affy_ID 174102_at): 0.2822
Fold Change, gene ZK809.8 (C. elegans transcriptome; Downregulated genes, Affy_ID 175557_at): 0.3895
Fold Change, gene ZK112.1 (C. elegans transcriptome; Downregulated genes, Affy_ID 175995_at): 0.2683
Fold Change, gene Y119D3B.13 (C. elegans transcriptome; Downregulated genes, Affy_ID 176131_at): 0.2184
Fold Change, gene Y69A2AR.12 (C. elegans transcriptome; [3]): 0.2706
Fold Change, gene Y69A2AR.25 (C. elegans transcriptome; [3]): 0.2706
Fold Change, gene Y71H2AM.13 (C. elegans transcriptome; Downregulated genes, Affy_ID 176285_s_at): 0.4282
Fold Change, gene Y71G12B.4 (C. elegans transcriptome; Downregulated genes, Affy_ID 176544_at): 0.3363
Fold Change, gene Y54G2A.14 (C. elegans transcriptome; Downregulated genes, Affy_ID 177004_s_at): 0.3979
Fold Change, gene Y73B6BL.24 (C. elegans transcriptome; Downregulated genes, Affy_ID 177183_s_at): 0.3786
Fold Change, gene Y71H2AL.1 (C. elegans transcriptome; Downregulated genes, Affy_ID 177190_at): 0.2701
Fold Change, gene ZK669.2 (C. elegans transcriptome; Downregulated genes, Affy_ID 179491_at): 0.1961
Fold Change, gene ZK550.2 (C. elegans transcriptome; Downregulated genes, Affy_ID 179513_at): 0.2553
Fold Change, gene T23F4.3 (C. elegans transcriptome; Downregulated genes, Affy_ID 179815_at): 0.0609
Fold Change, gene Y51H4A.7 (C. elegans transcriptome; Downregulated genes, Affy_ID 180145_s_at): 0.2617
Fold Change, gene T23F4.1 (C. elegans transcriptome; Downregulated genes, Affy_ID 180223_s_at): 0.03953
Fold Change, gene W04B5.2 (C. elegans transcriptome; Downregulated genes, Affy_ID 180561_at): 0.4474
Fold Change, gene ZK484.5 (C. elegans transcriptome; Downregulated genes, Affy_ID 182193_at): 0.3211
Fold Change, gene Y44A6C.1 (C. elegans transcriptome; Downregulated genes, Affy_ID 182843_at): 0.3152
Fold Change, gene Y45F10A.5 (C. elegans transcriptome; Downregulated genes, Affy_ID 184558_at): 0.1919
Fold Change, gene T23B12.8 (C. elegans transcriptome; Downregulated genes, Affy_ID 184855_at): 0.1557
Fold Change, gene Y105C5B.5 (C. elegans transcriptome; Downregulated genes, Affy_ID 185106_at): 0.254
Fold Change, gene W01A11.6 (C. elegans transcriptome; Downregulated genes, Affy_ID 186120_at): 0.4275
Fold Change, gene T27A10.7 (C. elegans transcriptome; Downregulated genes, Affy_ID 186153_s_at): 0.3382
Fold Change, gene Y18D10A.23 (C. elegans transcriptome; Downregulated genes, Affy_ID 186886_s_at): 0.3476
Fold Change, gene Y105C5A.24 (C. elegans transcriptome; Downregulated genes, Affy_ID 187121_at): 0.3662
Fold Change, gene ZC416.6 (C. elegans transcriptome; Downregulated genes, Affy_ID 188470_s_at): 0.2458
Fold Change, gene T25C12.3 (C. elegans transcriptome; Downregulated genes, Affy_ID 188823_s_at): 0.2936
Fold Change, gene ZK593.1 (C. elegans transcriptome; Downregulated genes, Affy_ID 189095_at): 0.3436
Fold Change, gene ZK484.2 (C. elegans transcriptome; Downregulated genes, Affy_ID 189882_at): 0.286
Fold Change, gene ZK131.4 (C. elegans transcriptome; Downregulated genes, Affy_ID 190307_s_at): 0.2791
Fold Change, gene Y40D12A.2 (C. elegans transcriptome; Downregulated genes, Affy_ID 191017_at): 0.3228
Fold Change, gene W07B8.5 (C. elegans transcriptome; Downregulated genes, Affy_ID 191887_s_at): 0.2934
Fold Change, gene Y51A2D.13 (C. elegans transcriptome; Downregulated genes, Affy_ID 192992_at): 0.2251
Fold Change, gene Y69E1A.5 (C. elegans transcriptome; Downregulated genes, Affy_ID 193144_at): 0.316
Fold Change, gene Y111B2A.13 (C. elegans transcriptome; Downregulated genes, Affy_ID 193715_at): 0.4867
Fold Change, gene Y48A6B.7 (C. elegans transcriptome; Downregulated genes, Affy_ID 193926_at): 0.205
Fold Change, gene ZK666.7 (C. elegans transcriptome; Downregulated genes, Affy_ID 194066_s_at): 0.1175
Fold Change (C. elegans transcriptome; Gene AC3.7, Affy_ID 190879_at): 0.1754
Fold Change (C. elegans transcriptome; Gene B0035.13, Affy_ID 188123_at): 0.2664
Fold Change (C. elegans transcriptome; Gene C02F5.7, Affy_ID 191772_at): 0.3854
Fold Change (C. elegans transcriptome; Gene C04G2.4, Affy_ID 172853_x_at): 0.1724
Fold Change (C. elegans transcriptome; Gene C05C10.4, Affy_ID 189921_at): 0.2517
Fold Change (C. elegans transcriptome; Gene C05C12.3, Affy_ID 183355_s_at): 0.2041
Fold Change (C. elegans transcriptome; Gene C06A12.3, Affy_ID 183322_at): 0.4777
Fold Change (C. elegans transcriptome; Gene C06G3.5, Affy_ID 189941_at): 0.4389
Fold Change (C. elegans transcriptome; Gene C08E3.1, Affy_ID 172309_x_at): 0.09218
Fold Change (C. elegans transcriptome; Gene C08E3.13, Affy_ID 172565_x_at): 0.08084
Fold Change (C. elegans transcriptome; Gene C08F11.13, Affy_ID 175229_at): 0.2613
Fold Change (C. elegans transcriptome; Gene C14C6.2, Affy_ID 183566_at): 0.2902
Fold Change (C. elegans transcriptome; Gene C17B7.2, Affy_ID 181325_s_at): 0.2818
Fold Change (C. elegans transcriptome; Gene C18G1.2, Affy_ID 191147_at): 0.4346
Fold Change (C. elegans transcriptome; Gene C18H9.6, Affy_ID 187412_at): 0.3068
Fold Change (C. elegans transcriptome; Gene C24A3.6, Affy_ID 175541_at): 0.3015
